Values joined by “and” are separate entries in the source; they are usually repeats but may differ in a detail not shown here. Identical values can stand only once.
O=C(C(F)(F)C(F)(F)F)C(F)(C(F)(F)F)C(F)(F)F [dodecafluoro-2-methylpentan-3-one]
Conditions	thermal conductivity
433.25 K, 43 kPa, Gas, hot wire	0.02108 W/m/K
433.25 K, 156 kPa, Gas, hot wire	0.02107 W/m/K
433.27 K, 1298 kPa, Gas, transient hot wire	0.02415 W/m/K
433.28 K, 371 kPa, Gas, hot wire	0.0228 W/m/K and 0.02281 W/m/K
433.28 K, 922 kPa, Gas, transient hot wire	0.02221 W/m/K
433.28 K, 49421 kPa, Liquid, transient hot wire	0.0643 W/m/K
433.29 K, 49444 kPa, Liquid, transient hot wire	0.06433 W/m/K
433.3 K, 9673 kPa, Liquid, transient hot wire	0.04596 W/m/K
433.3 K, 22710 kPa, Liquid, transient hot wire	0.05348 W/m/K
433.31 K, 9675 kPa, Liquid, transient hot wire	0.04592 W/m/K
433.35 K, 1138 kPa, Gas, transient hot wire	0.02299 W/m/K
433.36 K, 15082 kPa, Liquid, transient hot wire	0.04913 W/m/K
433.36 K, 22714 kPa, Liquid, transient hot wire	0.0536 W/m/K
433.37 K, 162 kPa, Gas, hot wire	0.02126 W/m/K
433.37 K, 1138 kPa, Gas, transient hot wire	0.02295 W/m/K
433.37 K, 15085 kPa, Liquid, transient hot wire	0.04954 W/m/K
433.38 K, 43 kPa, Gas, hot wire	0.02108 W/m/K
433.38 K, 159 kPa, Gas, hot wire	0.02129 W/m/K
433.38 K, 6166 kPa, Liquid, transient hot wire	0.04304 W/m/K
433.39 K, 43 kPa, Gas, hot wire	0.02105 W/m/K
433.39 K, 6163 kPa, Liquid, transient hot wire	0.04307 W/m/K
433.41 K, 34187 kPa, Liquid, transient hot wire	0.05868 W/m/K
433.43 K, 922 kPa, Gas, transient hot wire	0.02216 W/m/K
433.43 K, 34200 kPa, Liquid, transient hot wire	0.05865 W/m/K
433.44 K, 922 kPa, Gas, transient hot wire	0.02224 W/m/K
433.45 K, 3945 kPa, Liquid, transient hot wire	0.04079 W/m/K
433.46 K, 3946 kPa, Liquid, transient hot wire	0.04082 W/m/K
433.49 K, 9685 kPa, Liquid, transient hot wire	0.046 W/m/K
433.5 K, 375 kPa, Gas, transient hot wire	0.02215 W/m/K
433.5 K, 9681 kPa, Liquid, transient hot wire	0.04597 W/m/K
433.51 K, 377 kPa, Gas, transient hot wire	0.02227 W/m/K
433.52 K, 1139 kPa, Gas, transient hot wire	0.02308 W/m/K and 0.02311 W/m/K
433.53 K, 654 kPa, Gas, transient hot wire	0.02193 W/m/K
433.53 K, 655 kPa, Gas, transient hot wire	0.02205 W/m/K
433.55 K, 15079 kPa, Liquid, transient hot wire	0.04951 W/m/K
433.55 K, 15081 kPa, Liquid, transient hot wire	0.04953 W/m/K
433.55 K, 22699 kPa, Liquid, transient hot wire	0.05365 W/m/K
433.55 K, 22714 kPa, Liquid, transient hot wire	0.05356 W/m/K
433.59 K, 6168 kPa, Liquid, transient hot wire	0.04309 W/m/K
433.59 K, 6172 kPa, Liquid, transient hot wire	0.04309 W/m/K
433.6 K, 922 kPa, Gas, transient hot wire	0.02237 W/m/K
433.69 K, 1141 kPa, Gas, transient hot wire	0.02332 W/m/K
433.7 K, 374 kPa, Gas, transient hot wire	0.02216 W/m/K
433.7 K, 375 kPa, Gas, transient hot wire	0.02227 W/m/K
433.7 K, 1140 kPa, Gas, transient hot wire	0.02335 W/m/K
433.7 K, 9688 kPa, Liquid, transient hot wire	0.04596 W/m/K
433.7 K, 9691 kPa, Liquid, transient hot wire	0.046 W/m/K
433.72 K, 652 kPa, Gas, transient hot wire	0.02204 W/m/K
433.74 K, 651 kPa, Gas, transient hot wire	0.02205 W/m/K
433.76 K, 15088 kPa, Liquid, transient hot wire	0.04948 W/m/K
433.76 K, 15091 kPa, Liquid, transient hot wire	0.04951 W/m/K
433.79 K, 922 kPa, Gas, transient hot wire	0.02242 W/m/K
433.81 K, 6177 kPa, Liquid, transient hot wire	0.04299 W/m/K
433.82 K, 6182 kPa, Liquid, transient hot wire	0.04309 W/m/K
433.87 K, 1141 kPa, Gas, transient hot wire	0.02354 W/m/K
433.88 K, 1141 kPa, Gas, transient hot wire	0.02356 W/m/K
433.89 K, 373 kPa, Gas, transient hot wire	0.02231 W/m/K
433.9 K, 373 kPa, Gas, transient hot wire	0.02227 W/m/K
433.92 K, 9693 kPa, Liquid, transient hot wire	0.04597 W/m/K
433.92 K, 9695 kPa, Liquid, transient hot wire	0.04596 W/m/K
433.94 K, 648 kPa, Gas, transient hot wire	0.02211 W/m/K
433.94 K, 649 kPa, Gas, transient hot wire	0.02204 W/m/K
433.96 K, 922 kPa, Gas, transient hot wire	0.02254 W/m/K
433.98 K, 922 kPa, Gas, transient hot wire	0.02253 W/m/K
434.12 K, 372 kPa, Gas, transient hot wire	0.02229 W/m/K and 0.02228 W/m/K
434.14 K, 645 kPa, Gas, transient hot wire	0.02216 W/m/K
434.14 K, 646 kPa, Gas, transient hot wire	0.02214 W/m/K
434.33 K, 371 kPa, Gas, transient hot wire	0.02233 W/m/K
434.35 K, 371 kPa, Gas, transient hot wire	0.02232 W/m/K
452.91 K, 2283 kPa, Gas, transient hot wire	0.03823 W/m/K
452.94 K, 2214 kPa, Gas, transient hot wire	0.03736 W/m/K
452.96 K, 2283 kPa, Gas, transient hot wire	0.03736 W/m/K
452.98 K, 2213 kPa, Gas, transient hot wire	0.03655 W/m/K
452.99 K, 2283 kPa, Gas, transient hot wire	0.03849 W/m/K
452.99 K, 2349 kPa, Gas, transient hot wire	0.03688 W/m/K
453 K, 2137 kPa, Gas, transient hot wire	0.033 W/m/K
453 K, 2214 kPa, Gas, transient hot wire	0.0364 W/m/K
453 K, 2283 kPa, Gas, transient hot wire	0.03799 W/m/K
453.01 K, 2349 kPa, Gas, transient hot wire	0.03694 W/m/K
453.01 K, 2431 kPa, Gas, transient hot wire	0.0358 W/m/K
453.03 K, 2213 kPa, Gas, transient hot wire	0.03832 W/m/K
453.03 K, 2432 kPa, Gas, transient hot wire	0.03591 W/m/K
453.04 K, 2137 kPa, Gas, transient hot wire	0.03326 W/m/K
453.04 K, 2213 kPa, Gas, transient hot wire	0.0384 W/m/K and 0.03766 W/m/K

— the NIST ThermoML archive (doi:10.1021/acs.jced.8b00132)
